The results in this text go back to patent EP0934300B1, “THE PREPARATION AND USE OF ORTHO-S[…] AS MATRIX METALLOPROTEINASE AND TACE INHIBITORS” (American Cyanamid Company, priority 1996, dated 1998).

Common to all, as to assay type: biochemical
One experiment addresses MMP-9 (Homo sapiens, UniProt P14780). The experiment is described as follows: MMP-9 inhibition (thiopeptide or fluorescent peptide substrate assay). As to conditions: for inhibition at 10 µM: concentration 10 µM. The procedure:
(§1) These assays are based on the cleavage of a thiopeptide substrates such as Ac-Pro-Leu-Gly(2mercapto-4 methyl-pentanoyl)-Leu-Gly-OEt by the matrix metalloproteinases MMP-1, MMP-13 (collagenases) or MMP-9 (gelatinase), which results in the release of a substrate product that reacts colorimetrically with DTNB (5,5'-dithiobis(2-nitro-benzoic acid)). The enzyme activity is measured by the rate of the color increase. The thiopeptide substrate is made up fresh as a 20 mM stock in 100% DMSO and the DTNB is dissolved in 100% DMSO as a 100 mM stock and stored in the dark at room temperature. Both the substrate and DTNB are diluted together to 1 mM with substrate buffer (50 mM HEPES pH 7.5, 5 mM CaCl2) before use. The stock of enzyme is diluted with assay buffer (50 mM HEPES, pH 7.5, 5 mM CaCl2, 0.02% Brij) to the desired final concentration.
(§2) Alternatively, a fluorescent peptide substrate is used. In this assay, the peptide substrate contains a fluorescent group and a quenching group. Upon cleavage of the substrate by an MMP, the fluorescence that is generated is quantitated on the fluorescence plate reader. The assay is run in HCBC assay buffer (50mM HEPES, pH 7.0, 5 mM Ca^+2, 0.02% Brij, 0.5% Cysteine), with human recombinant MMP-1, MMP-9, or MMP-13. The substrate is dissolved in methanol and stored frozen in 1 mM aliquots. For the assay, substrate and enzymes are diluted in HCBC buffer to the desired concentrations. Compounds are added to the 96 well plate containing enzyme and the reaction is started by the addition of substrate. The reaction is read (excitation 340 nm, emission 444 nm) for 10 min. and the increase in fluorescence over time is plotted as a linear line.
(§3) For either the thiopeptide or fluorescent peptide assays, the slope of the line is calculated and represents the reaction rate. The linearity of the reaction rate is confirmed (r^2 >0.85). The mean (x±sem) of the control rate is calculated and compared for statistical significance (p<0.05) with drug-treated rates using Dunnett's multiple comparison test.

The next experiment deals with MMP-13 (Homo sapiens, UniProt P45452). The experiment is described as follows: MMP-13 inhibition (thiopeptide or fluorescent peptide substrate assay).
The next experiment deals with T1, MMP-1 (Homo sapiens, UniProt P03956).
T1 sequence (P03956 100-469): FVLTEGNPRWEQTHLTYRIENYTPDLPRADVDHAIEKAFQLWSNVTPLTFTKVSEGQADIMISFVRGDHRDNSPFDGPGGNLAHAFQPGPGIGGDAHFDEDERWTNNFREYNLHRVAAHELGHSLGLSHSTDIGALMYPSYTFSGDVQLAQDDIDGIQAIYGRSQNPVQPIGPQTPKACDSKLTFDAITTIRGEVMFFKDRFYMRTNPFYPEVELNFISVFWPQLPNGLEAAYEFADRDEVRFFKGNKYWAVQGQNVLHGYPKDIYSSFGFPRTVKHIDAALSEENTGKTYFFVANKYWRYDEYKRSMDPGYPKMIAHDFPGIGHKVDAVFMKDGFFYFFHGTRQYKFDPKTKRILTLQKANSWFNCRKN
The experiment is described as follows: MMP-1 inhibition (thiopeptide or fluorescent peptide substrate assay). As to conditions: for inhibition at 1 µM: read-out: MMP-1 % inhibition, concentration 1 µM. The procedure:
as §1, §2, §3

The target of the next experiment is T2, TACE (Homo sapiens, UniProt P78536).
T2 construct: purchased Immunex
Nature of the experiment: TACE inhibition (fluorescent peptidyl substrate assay).

MMP-9, sequence (P14780 94-707): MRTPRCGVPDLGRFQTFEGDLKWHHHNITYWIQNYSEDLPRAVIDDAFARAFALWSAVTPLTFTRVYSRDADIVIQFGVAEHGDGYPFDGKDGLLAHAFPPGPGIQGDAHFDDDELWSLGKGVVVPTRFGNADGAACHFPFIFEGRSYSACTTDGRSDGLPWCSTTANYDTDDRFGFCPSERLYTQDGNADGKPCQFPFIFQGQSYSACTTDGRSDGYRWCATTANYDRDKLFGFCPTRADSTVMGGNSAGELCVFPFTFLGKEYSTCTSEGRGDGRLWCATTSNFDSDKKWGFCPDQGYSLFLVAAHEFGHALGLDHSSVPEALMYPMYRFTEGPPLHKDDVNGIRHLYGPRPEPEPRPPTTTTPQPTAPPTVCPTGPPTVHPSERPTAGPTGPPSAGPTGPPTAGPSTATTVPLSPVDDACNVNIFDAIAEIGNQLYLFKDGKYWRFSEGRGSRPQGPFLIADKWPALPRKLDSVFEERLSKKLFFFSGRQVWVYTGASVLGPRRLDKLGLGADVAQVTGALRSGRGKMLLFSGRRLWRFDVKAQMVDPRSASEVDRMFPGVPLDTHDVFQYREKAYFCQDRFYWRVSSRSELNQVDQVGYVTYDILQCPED
T2 sequence (P78536 215-824): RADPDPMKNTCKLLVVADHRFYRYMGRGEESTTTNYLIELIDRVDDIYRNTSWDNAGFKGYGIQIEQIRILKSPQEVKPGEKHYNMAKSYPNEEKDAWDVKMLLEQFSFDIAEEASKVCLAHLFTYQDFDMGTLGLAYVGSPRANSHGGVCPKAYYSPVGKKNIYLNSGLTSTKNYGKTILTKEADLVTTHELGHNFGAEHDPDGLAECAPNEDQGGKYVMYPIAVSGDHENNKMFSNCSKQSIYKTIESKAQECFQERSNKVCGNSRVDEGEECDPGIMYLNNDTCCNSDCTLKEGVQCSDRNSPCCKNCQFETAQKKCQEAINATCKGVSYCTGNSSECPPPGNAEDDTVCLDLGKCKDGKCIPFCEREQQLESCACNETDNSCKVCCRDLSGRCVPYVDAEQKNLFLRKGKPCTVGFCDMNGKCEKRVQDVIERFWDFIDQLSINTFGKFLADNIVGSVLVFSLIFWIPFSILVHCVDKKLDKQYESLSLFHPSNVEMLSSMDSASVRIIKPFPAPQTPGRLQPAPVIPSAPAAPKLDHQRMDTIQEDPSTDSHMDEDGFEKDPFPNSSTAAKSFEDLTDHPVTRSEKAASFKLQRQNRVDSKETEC
Protocol for MMP-13: Alternatively, a fluorescent peptide substrate is used. In this assay, the peptide substrate contains a fluorescent group and a quenching group. Upon cleavage of the substrate by an MMP, the fluorescence that is generated is quantitated on the fluorescence plate reader. […] The substrate is dissolved in methanol and stored frozen in 1 mM aliquots. For the assay, substrate and enzymes are diluted in HCBC buffer to the desired concentrations. Compounds are added to the 96 well plate containing enzyme and the reaction is started by the addition of substrate.
Protocol for TACE: Using 96-well black microtiter plates, each well receives a solution composed of 10 µL TACE (Immunex, final concentration 1µg/mL), 70µL Tris buffer, pH 7.4 containing 10% glycerol (final concentration 10 mM), and 10 µL of test compound solution in DMSO (final concentration 1µM, DMSO concentration <1%) and incubated for 10 minutes at room temperature.
The reaction is read (excitation 340 nm, emission 420 nm) for 10 min. and the increase in fluorescence over time is plotted as a linear line. The slope of the line is calculated and represents the reaction rate.

The term IC50 denotes the concentration that inhibits the measured activity by half. As to `COc1ccc(S(=O)(=O)N(Cc2ccccc2)c2c(C(=O)NO)csc2Br)cc1` [Example 20, 4-[Benzyl-(4-methoxy-benzenesulfonyl)-amino]-5-bromo-thiophene-3-carboxylic acid hydroxyamide], the IC50 amounted to 236 nM on MMP-9, 472 nM on MMP-13 and 638 nM at MMP-1.

One may read the inhibition as the percentage by which the read-out fell short of the control. In the case of `COc1ccc(S(=O)(=O)N(Cc2ccccc2)c2cscc2C(=O)NO)cc1` [Example 14, 4-[Benzyl-(4-methoxy-benzenesulfonyl)-amino]-thiophene-3-carboxylic acid hydroxyamide], the inhibition at 10 µM on MMP-9 (read-out: MMP-9 % inhibition) turned out to be 66.8%. The inhibition at 1 µM on MMP-1 stood at 40%.

As for `COc1ccc(S(=O)(=O)N(Cc2ccccc2)c2ccsc2C(=O)NO)cc1` [Example 13, 3-[Benzyl-(4-methoxy-benzenesulfonyl)-amino]-thiophene-2-carboxylic acid hydroxyamide], the inhibition at 10 µM on MMP-9 (read-out: MMP-9 % inhibition) was 57.3%. Moreover, the inhibition at 1 µM at MMP-1 amounted to 19.3%.

For `COc1ccc(S(=O)(=O)N(Cc2cccnc2)c2c(C(=O)NO)csc2Br)cc1` [Example 26, 5-Bromo-4-[(4-methoxy-benzenesulfonyl)-pyridin-3-ylmethyl-amino]-thiophene-3-carboxylic acid hydroxyamide], the IC50 at MMP-9 came out at 70 nM; against MMP-1, 1000 nM. Besides, the inhibition at 1 µM against TACE (concentration 1 µM) amounted to 42%.

At MMP-9, `COc1ccc(S(=O)(=O)N(Cc2ccccc2)c2c(C)csc2C(=O)NO)cc1` [Example 16, 3-[Benzyl-(4-methoxy-benzenesulfonyl)-amino]-4-methyl-thiophene-2-carboxylic acid hydroxyamide] returned a concentration for half-maximal inhibition (IC50) of 104 nM. In other words, the sub-micromolar range.

The molecule `COc1ccc(S(=O)(=O)N(Cc2ccccc2)c2c(C(=O)NO)cnn2C)cc1` [Example 15, 5-[Benzyl-(4-methoxy-benzenesulfonyl)-amino]-1-methyl-1H-pyrazole-4-carboxylic acid hydroxyamide] gave a concentration for half-maximal inhibition (IC50) on MMP-9 of 930 nM. Further, on MMP-1, the inhibition at 1 µM came to 22.1%.

For the molecule `COc1ccc(S(=O)(=O)N(Cc2ccccc2)c2c(C(=O)NO)cc(OC)nc2OC)cc1` [Example 33, 3-[Benzyl-(4-methoxy-benzenesulfonyl)-amino]-N-hydroxy-2,6-dimethoxyisonicotinamide], the half-inhibitory concentration (IC50) against MMP-9 was determined as 15 nM; on MMP-13 it was 47 nM; against TACE, 294 nM.

Regarding `C#Cc1scc(C(=O)NO)c1N(Cc1ccccc1)S(=O)(=O)c1ccc(OC)cc1` [Example 23, 4-[Benzyl-(4-methoxy-benzenesulfonyl)-amino]-5-ethynyl-thiophene-3-carboxylic acid hydroxyamide], the inhibition at 300 µM at MMP-9 (read-out: MMP-9 % inhibition, concentration 300 µM) was 38.4%; on MMP-13 (read-out: MMP-13 % inhibition), 35%. Also, the inhibition at 1 µM at MMP-1 was 48.9%.
